Patent US5079244A, “Substituted 3-aminosydnone imines, pharmaceutical compositions containing same, and process for administering same” (Cassella Aktiengesellschaft, priority 1989, dated 1992)
Where a name gives a salt, the structure may show the parent alone.

Tested on: spiral strips of the pulmonary artery of the guinea pig
Assay: relaxant effect on potassium-depolarized, CaCl2-contracted spiral strips of the pulmonary artery of the guinea pig
Conditions: Cavia porcellus, 40 mmol/l potassium, contraction by 0.5 mmol/l CaCl2, cumulative addition, average value of 4 to 6 vessel strips, read-out: IC50: concentration of the test substance which inhibits the contraction by 50%
Method: The pharmacological action of the compounds of the formula I was determined by a modified method of Godfraind and Kaba (Arch. Int. Pharmacodyn. Ther. 196, (Suppl ) 35 to 49, 1972) and of Schuman et al. (Naunyn-Schmiedeberg'sArch. Pharmacol. 289, 409 to 418, 1975). In this connection, spiral strips of the pulmonary artery of the guinea pig are depolarized using 40 mmol/l of potassium after equilibration in calcium-free Tyrode solution. An addition of 0.5 mmol/l of CaCl2 then induces a contraction. The relaxant effect of the test substance is determined by cumulative addition in semilogarithmic graduated concentrations. The concentration of the test substance which inhibits the contraction by 50% (=IC50, mol/l) is determined from the concentration-effect curve (abscissa: --log mol/l of test substance, ordinate % inhibition of the maximum contraction, average value of 4 to 6 vessel strips).

Structure (SMILES)	IC50
CC1CCCC(C)N1[n+]1[n-]oc(=N)c1CSc1ccccc1 (stereo not shown) [Example 5, 3-(2,6-Dimethylpiperidino)-4-phenylthiomethylsydnone imine hydrochloride]	1100 nM
N=c1o[n-][n+](N2CCOCC2)c1CSCc1ccccc1 [Example 7, 4-Benzylthiomethyl-3-morpholinosydnone imine hydrochloride]	700 nM
CC1CCCC(C)N1[n+]1[n-]oc(=N)c1CSCc1ccccc1 (stereo not shown) [Example 8, 4-Benzylthiomethyl-3-(2,6-dimethylpiperidino)sydnone imine hydrochloride]	800 nM
CC1CCCC(C)N1[n+]1noc([N-]C(=O)c2ccccc2)c1CSCc1ccccc1 (stereo not shown) [Example 10, N-Benzoyl-4-benzylthiomethyl-3-(2,6-dimethylpiperidino)sydnone imine]	2000 nM
CC(CSCc1ccccc1)c1c(=N)o[n-][n+]1N1CCOCC1 (stereo not shown) [Example 12, 4-(2-Benzylthio-1-methylethyl)-3-morpholinosydnone imine hydrochloride]	500 nM
CC1CCCC(C)N1[n+]1[n-]oc(=N)c1COc1ccccc1 (stereo not shown) [Example 13, 3-(2,6-Dimethylpiperidino)-4-phenoxymethylsydnone imine hydrochloride]	2000 nM
CCOC(=O)[N-]c1cn(N2CCOCC2)n[o+]1 [molsidomine, N-ethoxycarbonyl-3-morpholino-sydnone imine, reference compound]	> 300000 nM
